From PubChem BioAssay (NCI)
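The compound was tested at five concentrations on cells cultured in 96-well plates, with a 48-hour exposure period. Abbreviation: GI50, concentration required for 50% inhibition of growth. At the TGI there is no net growth.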

Columns and labels:
Test in all cases: inhibition of tumour cell growth, NCI panel, 48 h
HCC-2998 colon = tested on: HCC-2998 colon
HOP-62 NSCLC = tested on: HOP-62 NSCLC
786-0 renal = tested on: 786-0 renal
NCI-H460 lung = tested on: NCI-H460 lung
OVCAR-8 ovarian = tested on: OVCAR-8 ovarian
NCI-H522 lung = tested on: NCI-H522 lung
SR leukemia = tested on: SR leukemia
MCF7 breast = tested on: MCF7 breast
HCT-15 colon = tested on: HCT-15 colon
RPMI-8226 leukemia = tested on: RPMI-8226 leukemia
K-562 leukemia = tested on: K-562 leukemia
HCT-116 colon = tested on: HCT-116 colon
HS 578T breast = tested on: HS 578T breast
BT-549 breast = tested on: BT-549 breast
IGROV1 ovarian = tested on: IGROV1 ovarian
TK-10 renal = tested on: TK-10 renal
HL-60(TB) leukemia = tested on: HL-60(TB) leukemia
MALME-3M melanoma = tested on: MALME-3M melanoma
HT29 colon = tested on: HT29 colon
SN12C renal = tested on: SN12C renal
SF-539 CNS = tested on: SF-539 CNS
U251 CNS = tested on: U251 CNS
UACC-257 melanoma = tested on: UACC-257 melanoma
CCRF-CEM leukemia = tested on: CCRF-CEM leukemia
OVCAR-5 ovarian = tested on: OVCAR-5 ovarian
A549 NSCLC = tested on: A549 NSCLC
NCI/ADR-RES ovarian = tested on: NCI/ADR-RES ovarian
NCI-H226 lung = tested on: NCI-H226 lung
UO-31 renal = tested on: UO-31 renal
SK-MEL-5 melanoma = tested on: SK-MEL-5 melanoma
RXF 393 renal = tested on: RXF 393 renal
CAKI-1 renal = tested on: CAKI-1 renal
A498 renal = tested on: A498 renal
MDA-MB-231 breast = tested on: MDA-MB-231 breast
HOP-92 NSCLC = tested on: HOP-92 NSCLC
SK-OV-3 ovarian = tested on: SK-OV-3 ovarian
OVCAR-3 ovarian = tested on: OVCAR-3 ovarian
KM12 colon = tested on: KM12 colon
SNB-75 CNS = tested on: SNB-75 CNS
SF-295 CNS = tested on: SF-295 CNS
NCI-H23 lung = tested on: NCI-H23 lung
SNB-19 CNS = tested on: SNB-19 CNS
T-47D breast = tested on: T-47D breast
OVCAR-4 ovarian = tested on: OVCAR-4 ovarian
MDA-MB-435 = tested on: MDA-MB-435
EKVX NSCLC = tested on: EKVX NSCLC
SF-268 CNS = tested on: SF-268 CNS
PC-3 prostate = tested on: PC-3 prostate
UACC-62 melanoma = tested on: UACC-62 melanoma
DU-145 prostate = tested on: DU-145 prostate
ACHN renal = tested on: ACHN renal
SK-MEL-2 melanoma = tested on: SK-MEL-2 melanoma
MOLT-4 leukemia = tested on: MOLT-4 leukemia
COLO 205 colon = tested on: COLO 205 colon
SK-MEL-28 melanoma = tested on: SK-MEL-28 melanoma
M14 melanoma = tested on: M14 melanoma
SW-620 colon = tested on: SW-620 colon
LOX IMVI melanoma = tested on: LOX IMVI melanoma

`NC(N)=N/N=C/c1c(-c2ccc(Cl)c([N+](=O)[O-])c2)nc2sc(Cl)cn12` showed a TGI (HCC-2998 colon) of over 100 µM, a TGI (HOP-62 NSCLC) of over 100 µM and a TGI (786-0 renal) of over 100 µM. The TGI (NCI-H460 lung) was 8.08 µM, the TGI (OVCAR-8 ovarian) was 4.08 µM and the TGI (NCI-H522 lung) was 3.07 µM. It also gave a TGI (SR leukemia) of over 100 µM, a TGI (MCF7 breast) of 6.3 µM and a TGI (HCT-15 colon) of over 100 µM. It also gave a TGI (RPMI-8226 leukemia) of over 100 µM, a TGI (K-562 leukemia) of over 100 µM and a TGI (HCT-116 colon) of over 100 µM. For the same molecule, the TGI (HS 578T breast) was 5.54 µM, the TGI (BT-549 breast) was 3.48 µM and the TGI (IGROV1 ovarian) was 3.18 µM. It also gave a TGI (TK-10 renal) of 58.5 µM, a TGI (HL-60(TB) leukemia) of over 100 µM and a TGI (MALME-3M melanoma) of 5.58 µM. The TGI (HT29 colon) was 6.85 µM, the TGI (SN12C renal) was 4.88 µM and the TGI (SF-539 CNS) was 4.98 µM. The TGI (U251 CNS) was over 100 µM, the TGI (UACC-257 melanoma) was 3.79 µM and the TGI (CCRF-CEM leukemia) was over 100 µM. For the same molecule, the TGI (OVCAR-5 ovarian) was over 100 µM, the TGI (A549 NSCLC) was 7 µM and the TGI (NCI/ADR-RES ovarian) was over 100 µM. It also gave a TGI (NCI-H226 lung) of over 100 µM, a TGI (UO-31 renal) of 3.47 µM and a TGI (SK-MEL-5 melanoma) of 15.9 µM.
`COC(=O)c1ccc2[nH]c(O)c(C(=Nc3ccc(N(C)C(=O)CN4CCN(C)CC4)cc3)c3ccc(C)cc3)c2c1` gave a GI50 (786-0 renal) of 336 nM, a TGI (786-0 renal) of 1.78 µM and a GI50 (RXF 393 renal) of 221 nM. It also gave a TGI (RXF 393 renal) of 1.05 µM, a GI50 (SR leukemia) of 153 nM and a TGI (SR leukemia) of 1.34 µM. The GI50 (RPMI-8226 leukemia) was 494 nM, the TGI (RPMI-8226 leukemia) was 2.47 µM and the GI50 (CAKI-1 renal) was 132 nM. For the same molecule, the TGI (CAKI-1 renal) was 1.48 µM, the GI50 (HCT-116 colon) was 124 nM and the TGI (HCT-116 colon) was 1.27 µM. For the same molecule, the GI50 (HS 578T breast) was 105 nM, the TGI (HS 578T breast) was 0.977 µM and the GI50 (BT-549 breast) was 1130 nM. The TGI (BT-549 breast) was 2.45 µM, the GI50 (MALME-3M melanoma) was 618 nM and the TGI (MALME-3M melanoma) was 1.88 µM. For the same molecule, the GI50 (SF-539 CNS) was 307 nM, the TGI (SF-539 CNS) was 1.18 µM and the GI50 (U251 CNS) was 571 nM. For the same molecule, the TGI (U251 CNS) was 2 µM, the GI50 (CCRF-CEM leukemia) was 355 nM and the GI50 (A498 renal) was 458 nM. It also gave a TGI (A498 renal) of 1.96 µM, a GI50 (UO-31 renal) of 353 nM and a TGI (UO-31 renal) of 1.47 µM. The GI50 (SK-MEL-5 melanoma) was 1110 nM and the TGI (SK-MEL-5 melanoma) was 2.39 µM.
`O=C1NC(N/N=C/c2ccccc2)=N/C1=C\c1ccco1` was tested, and the TGI (HCC-2998 colon) was over 100 µM, the TGI (HOP-62 NSCLC) was 50.6 µM and the TGI (MDA-MB-231 breast) was over 100 µM. The TGI (786-0 renal) was 55.6 µM, the TGI (NCI-H460 lung) was 45.5 µM and the TGI (OVCAR-8 ovarian) was 34.9 µM. It also gave a TGI (NCI-H522 lung) of 95.2 µM, a TGI (RXF 393 renal) of 80.4 µM and a TGI (MCF7 breast) of over 100 µM. The TGI (HCT-15 colon) was over 100 µM, the TGI (RPMI-8226 leukemia) was over 100 µM and the TGI (HOP-92 NSCLC) was 37.3 µM. For the same molecule, the TGI (SK-OV-3 ovarian) was over 100 µM, the TGI (OVCAR-3 ovarian) was over 100 µM and the TGI (CAKI-1 renal) was over 100 µM. The TGI (HCT-116 colon) was over 100 µM, the TGI (KM12 colon) was over 100 µM and the TGI (HS 578T breast) was 78.3 µM. It also gave a TGI (BT-549 breast) of 70.6 µM, a TGI (IGROV1 ovarian) of 57.4 µM and a TGI (SNB-75 CNS) of over 100 µM. For the same molecule, the TGI (SF-295 CNS) was over 100 µM, the TGI (TK-10 renal) was 92.3 µM and the TGI (NCI-H23 lung) was 95.6 µM. It also gave a TGI (HL-60(TB) leukemia) of over 100 µM, a TGI (SNB-19 CNS) of over 100 µM and a TGI (MALME-3M melanoma) of over 100 µM. The TGI (T-47D breast) was over 100 µM, the TGI (OVCAR-4 ovarian) was over 100 µM and the TGI (HT29 colon) was over 100 µM. For the same molecule, the TGI (SN12C renal) was over 100 µM, the TGI (MDA-MB-435) was over 100 µM and the TGI (U251 CNS) was 68.4 µM. For the same molecule, the TGI (EKVX NSCLC) was over 100 µM, the TGI (SF-268 CNS) was 75.6 µM and the TGI (UACC-257 melanoma) was over 100 µM. The TGI (CCRF-CEM leukemia) was over 100 µM, the TGI (OVCAR-5 ovarian) was over 100 µM and the TGI (PC-3 prostate) was over 100 µM. The TGI (A549 NSCLC) was 81.3 µM, the TGI (UACC-62 melanoma) was over 100 µM and the TGI (DU-145 prostate) was over 100 µM. The TGI (ACHN renal) was 55.4 µM, the TGI (SK-MEL-2 melanoma) was over 100 µM and the TGI (MOLT-4 leukemia) was over 100 µM. It also gave a TGI (COLO 205 colon) of over 100 µM, a TGI (NCI/ADR-RES ovarian) of over 100 µM and a TGI (A498 renal) of over 100 µM. The TGI (SK-MEL-28 melanoma) was over 100 µM, the TGI (NCI-H226 lung) was over 100 µM and the TGI (UO-31 renal) was 86 µM. It also gave a TGI (SK-MEL-5 melanoma) of over 100 µM, a TGI (M14 melanoma) of over 100 µM and a TGI (SW-620 colon) of over 100 µM.
`O=C(O)CCC(NC(=O)c1ccc(OCc2nc3cc(C(F)(F)F)ccc3nc2-c2ccccc2)cc1)C(=O)O` (configuration not stated) gave a TGI (HCC-2998 colon) of over 100 µM, a TGI (HOP-62 NSCLC) of over 100 µM and a TGI (MDA-MB-231 breast) of over 100 µM. The TGI (786-0 renal) was over 100 µM, the TGI (NCI-H460 lung) was over 100 µM and the TGI (OVCAR-8 ovarian) was over 100 µM. For the same molecule, the TGI (NCI-H522 lung) was over 100 µM, the TGI (RXF 393 renal) was over 100 µM and the TGI (SR leukemia) was over 100 µM. For the same molecule, the TGI (LOX IMVI melanoma) was over 100 µM, the TGI (MCF7 breast) was over 100 µM and the TGI (HCT-15 colon) was over 100 µM. It also gave a TGI (HOP-92 NSCLC) of over 100 µM, a TGI (K-562 leukemia) of over 100 µM and a TGI (SK-OV-3 ovarian) of over 100 µM. For the same molecule, the TGI (OVCAR-3 ovarian) was over 100 µM, the TGI (CAKI-1 renal) was over 100 µM and the TGI (HCT-116 colon) was over 100 µM. For the same molecule, the TGI (KM12 colon) was over 100 µM, the TGI (IGROV1 ovarian) was over 100 µM and the TGI (SNB-75 CNS) was over 100 µM. It also gave a TGI (SF-295 CNS) of over 100 µM, a TGI (TK-10 renal) of over 100 µM and a TGI (NCI-H23 lung) of over 100 µM. The TGI (HL-60(TB) leukemia) was over 100 µM, the TGI (SNB-19 CNS) was over 100 µM and the TGI (MALME-3M melanoma) was over 100 µM. For the same molecule, the TGI (T-47D breast) was over 100 µM, the TGI (OVCAR-4 ovarian) was over 100 µM and the TGI (HT29 colon) was over 100 µM. The TGI (SN12C renal) was over 100 µM, the TGI (SF-539 CNS) was over 100 µM and the TGI (MDA-MB-435) was over 100 µM. It also gave a TGI (U251 CNS) of over 100 µM, a TGI (EKVX NSCLC) of over 100 µM and a TGI (SF-268 CNS) of over 100 µM. For the same molecule, the TGI (UACC-257 melanoma) was over 100 µM, the TGI (CCRF-CEM leukemia) was over 100 µM and the TGI (OVCAR-5 ovarian) was over 100 µM. The TGI (PC-3 prostate) was over 100 µM, the TGI (A549 NSCLC) was over 100 µM and the TGI (UACC-62 melanoma) was over 100 µM. For the same molecule, the TGI (DU-145 prostate) was over 100 µM, the TGI (ACHN renal) was over 100 µM and the TGI (SK-MEL-2 melanoma) was over 100 µM. The TGI (MOLT-4 leukemia) was over 100 µM, the TGI (COLO 205 colon) was over 100 µM and the TGI (NCI/ADR-RES ovarian) was over 100 µM. For the same molecule, the TGI (A498 renal) was over 100 µM, the TGI (SK-MEL-28 melanoma) was over 100 µM and the TGI (NCI-H226 lung) was over 100 µM. The TGI (UO-31 renal) was over 100 µM, the TGI (M14 melanoma) was over 100 µM and the TGI (SW-620 colon) was over 100 µM.
